Data on 4 molecules can be found in PMC4229146, “An Odorant-Binding Protein Is Abundantly Expressed in the Nose and in the Seminal Fluid of the Rabbit” (PLoS ONE, 2014).

The target of assay [1] is T1, rabOBP3.
T1 construct: native mature protein (161 amino acids) purified from rabbit seminal fluid, delipidated with dichloromethane
Nature of the assay: fluorescent probe titration (direct fluorescence binding). Details: species or system Oryctolagus cuniculus.

Assay [2] has as its target T1, rabOBP3. Nature of the assay: competitive displacement of fluorescent probe 1-NPN. Type of assay: binding, Oryctolagus cuniculus.

Turning to `c1ccc(Nc2cccc3ccccc23)cc1` [N-phenyl-1-naphthylamine], at rabOBP3 [1], the Kd was 3.8 µM.

At rabOBP3 [2], `O=c1c(O)c(-c2ccc(O)c(O)c2)oc2cc(O)cc(O)c12` [quercetin] displayed a dissociation constant Kd of 2.2 µM.

`CC(C)=CCC/C(C)=C/CO` [geraniol]: the Kd on rabOBP3 [2] amounted to 11.2 µM.

Consider `CCCCCC/C=C/C=O` [2-nonenal], for which binding on rabOBP3 [2] was put at a Kd of 7.8 µM. This Kd and that of the molecule before are within 1.5-fold of each other.
